Laboratory results published in patent US5622944A, “Testosterone prodrugs for improved drug delivery” (Affymax Technologies N.V., priority 1995, dated 1997).
Where a name gives a salt, the structure may show the parent alone. Read-outs that look alike come from different tables or passages of the source.

Assays:
[1] = Steady state flux across human skin (iontophoretic); type: in vitro ADME; conditions: iontophoresis (Table 4)
Protocol: Another useful factor for in vitro assessment of skin permeability of a target drug or drug complex is steady state flux. Typically, when performing a kinetic analysis of the skin-penetrating ability of a target compound through a membrane, such as skin, such an analysis includes an assessment of the lag time and the steady state flux or permeation rate. The ideal membrane for such determinations is human skin.
Steady state flux across human skin was determined for three distinct testosterone/chemical modifier complexes, as shown in FIG. 5 and in Table 4. In FIG. 5, iontophoretic flux rates over time are plotted for testosterone-17β-stachydrine ester, chloride salt [2.9], (closed circles), testosterone-17β-(L-carnitine ethyl ester) carbonate, iodide salt [1.7] (solid squares), and testosterone-17β-choline carbonate, bromide salt [1.4] (open circles). […] Steady state flux values in FIG. 5 are expressed as testosterone equivalents in units of μg/cm^2 h.
Iontophoretically-induced steady state flux across human skin was determined for three distinct testosterone/chemical modifier complexes, testosterone-17β-stachydrine ester, chloride salt [2.9], testosterone-17β-(L-carnitine ethyl ester) carbonate, iodide salt [1.7], and testosterone-17β-choline carbonate, bromide salt [1.4]. The in vitro skin flux experiments were carried out in a similar fashion to those described above, with the exception that human skin was used as the membrane.
Steady state flux values provide an indication of the total amount of drug (or drug complex) that can penetrate the skin, under a given set of experimental conditions.

[2] = Water solubility (H2O sol)
in vitro [3] = type: in vitro ADME; conditions: human, serum, 37° C.
Protocol: The hydrolytic activity of the sterol prodrug may be evaluated by studies of the chemical or enzymatic conversion of the prodrug to the unmodified parent compound, as described in Example 26.
Generally, the sterol/chemical modifier complex is dissolved in a minimum amount of a suitable solvent, such as ethanol, and the resulting solution is added to a sample of human serum. Following incubation, aliquots are then removed at various time points and analyzed to determine the extent of hydrolysis. Table I herein lists the representative serum half-lives of a number of testosterone prodrugs according to the present invention.
The rates of conversion are readily determined, for example by spectrophotometric methods or by gas-liquid or high performance liquid chromatography. Half-lives and other kinetic parameters may then be calculated using standard techniques.
Determination of Testosterone Prodrug Hydrolysis in Serum
Stock solutions (6 mM) of the testosterone prodrugs were prepared in ethanol (dissolution was accomplished by vortexing, sonication, or warming at 37° C., as needed). If required for dissolution, one drop of a co-solvent such as dimethylsulfoxide, dimethylformamide or methanol was added. (Acetonitrile is undesirable because it deactivates the serum enzymes).
HPLC separation methods were established for each study by dilution of the above stock solutions (6 μl) in acetonitrile (1 ml) to form 36 μM solutions. Samples (10 μl) were injected onto a Nucleosil 5C8 column (250×4 mm ID) fitted with an additional guard column (11×4 mm ID) and eluted with a mobile phase of approximately 65% HPLC grade water and 35% trifluoroacetic acid in acetonitrile (0.1% TFA in acetonitrile). Exact proportions of the mobile phase eluents were adjusted in each case to give optimum separation and run times.
Freshly defrosted human serum (3 ml, Sigma) was warmed at 37° C. for five minutes and then the testosterone prodrug stock solution (60 μl) was added with vortexing. […] The aliquots were added to 800 μl of 2% zinc sulfate solution in a 1.5 ml disposable microcentrifuge tube, vortexed immediately and centrifuged at 14,000 RPM for 3 minutes. The supernatants (10 μl) were injected onto the HPLC and peak areas used to determine the percent of parent drug formed or percent of prodrug remaining. Serum blanks were prepared similarly by addition of serum to the zinc sulfate solution, followed by centrifugation. Initial (time=0) samples were prepared by adding serum to the zinc sulfate solution, followed by addition of the complex and separation by centrifugation. The time=0 samples, as well as the original stock solutions, were also used to assess the stability of the complex in the absence of enzyme. Half-lives were determined using the following equation : […]
and plotting time (x ordinate) versus the natural logarithm of percent remaining prodrug (y ordinate) to obtain the slope (m) and the y intercept (b).

in vitro [4] = type: cell-based, human; conditions: human, dermal fibroblasts, MTT
Protocol: (§1) As discussed above, the chemical modifier, when present in the subject in its free or released form, and in appropriately administered amounts, should preferably be non-toxic. Additionally, any further in vivo degradation products of the chemical modifier should be non-toxic, as well. Table 2 provides in vitro relative cytotoxicity data for a number of testosterone/chemical modifier complexes, prepared in accordance with the invention. The cytotoxicity assessment was carried out by examining the viability of human dermal fibroblasts in the presence of a number of testosterone/chemical modifier complexes in accordance with the present invention. Details of the experimental protocol are summarized in Example 27.
(§2) The viability of human dermal fibroblasts in the presence of the 17-hydroxy sterol/chemical modifier compounds was assayed using MTT (3-[4,5-dimethylthiazol-2-yl]-2,5-diphenyltetrazolium bromide) reduction to formazan by mitochondrial enzymes as an indicator of cytotoxicity (Swisher, et al.). Confluent fibroblast cells were incubated for 2 or 16 hours in the presence of increasing concentrations of drug complex. At the end of the incubation period, medium was replaced for 4 hours by medium containing the tetrazolium salt, MTT. Metabolism of MTT to a blue formazan was quantitated by spectrophotometry at 540 nm.

[5] = type: in vitro ADME, mouse; conditions: for Flux, active electrotransport (ET): murine skin, active cells (ETm), 10 mM donor, 100 uA/cm^2, 6 h, 32° C.
Protocol: In vitro electrotransport of testosterone/chemical modifier complexes across hairless mouse skin was evaluated as described in Example 28. The experiments were conducted using modified Valia-Chien cells having 1.0 ml donor and 2.5 ml receptor cells. Anodic transport was carried out using a silver wire-based salt bridge in the donor compartment and a silver chloride cathode in the receptor. Cathodic transport was effected by reversing the electrode configuration. The cells were connected in series and a constant current and temperature were supplied to each cell.
After a predetermined period of time (6 h), aliquots were removed from the receiver phase for immediate analysis by HPLC to determine cumulative flux.
The electrotransport of testosterone/chemical modifier complexes was achieved using modified Valia-Chien cells (1.0 ml donor and 2.5 ml receptor cells). Full thickness, hairless mouse skin (Charles River Labs, Wilmington, Mass.) was soaked for one hour in phosphate buffered saline (PBS, pH=7.4) before placing between each compartment (dermal side of skin facing toward receptor). One passive (P1:data) and two or more (ETm :data) active cells were used to screen each compound.
A 10 mM (1 ml) aqueous solution of testosterone drug/prodrug was placed in the donor (unstirred) compartment and the receptor (stirred) was filled with 2.5 ml of PBS. In order to check for egress due to e.g. damaged skin, a zero hour sample of receptor ([…]) was taken one half hour after the drug solution was placed in the donor compartment. Replacement fluid of equal sample volume was added to the receptor compartment immediately after samples were taken.
Anodic electrotransport was achieved using a silver wire (immersed in a polyvinylalcohol-based salt bridge to minimize junction potential) in the donor compartment and a AgCl cathode in the receptor. […] The electrotransport cells were connected in series and constant current (100 uA/cm^2, […] for a skin area of 0.64 cm^2) and temperature (32° C.) were supplied to each cell. After six hours of active/passive transport, aliquots (200 ul) of the receptor were sampled and immediately analyzed by HPLC.
A standard plot of peak area and concentration for each compound was constructed using HPLC. The peak areas of the samples were determined and the concentrations calculated using the standard data. Cumulative flux was calculated using Quickbasic and reported in nmol/cm^2 /hr.

human dermal fibroblasts = test: in vitro; type: cell-based; conditions: MTT
Protocol: as §1, §2

SMILES | Steady State Flux [1] [nmole/cm^2 /h] | H2O sol [2] [mg/mL] | half-life (in vitro [3]; sample of 82% purity) [h] | CC50 at 2 h (in vitro [4]; IC50 2 h (cytotoxicity), 2 h incubation) [µM] | CC50 at 16 h (in vitro [4]; IC50 16 h (cytotoxicity), 16 h incubation) [µM] | Degradation (Degradation (%/d)) [%/d] | Flux, active electrotransport (ET) [5] [nmol/cm^2 /hr] | half-life (in vitro [3]; HPLC) [h] | CC50 (human dermal fibroblasts; read-out: IC50 2 h (cytotoxicity), 2 h incubation, 120 min) [µM] | CC50 (human dermal fibroblasts; read-out: IC50 16 h (cytotoxicity), 16 h incubation, 960 min) [µM] | Enhancement in in vitro electrotransport skin flux compared to testosterone ([5]; hairless mouse skin, vs unmodified testosterone, 'nearly 10-fold enhancement or greater') [fold]
CCOC(=O)C[C@H](C[N+](C)(C)C)OC(=O)O[C@H]1CC[C@H]2[C@@H]3CCC4=CC(=O)CC[C@]4(C)[C@H]3CC[C@]12C [Code 1.7, testosterone-17β-(L-carnitine ethyl ester) carbonate, iodide salt] | 75 ± 14 | 5.3 | 4.2 | 913 | 849 | 0 | 3.6 ± 1.3 |  |  |  | 
CCOC(=O)C[C@H](C[N+](C)(C)C)OC(=O)O[C@H]1CC[C@H]2[C@@H]3CCC4=CC(=O)CC[C@]4(C)[C@H]3CC[C@]12C [Code 4.1, testosterone-17β-(L-carnitine ethyl ester) carbonate, bromide salt] |  | 21.0 |  |  |  | 1 | 15.7 ± 5.3 | 4 | 1400 | 560 | ≥ 10
